According to paper PMC10419174, “WR1065 conjugated to thiol-PEG polymers as novel anticancer prodrugs: broad spectrum efficacy, synergism, and drug resistance reversal” (Frontiers in Oncology, 2023):
Several values for one entry are separate records, joined by “and”; a condition that tells them apart may be missing. Equal entries are not always repeated. Where two headings read alike, the source gives them in different places. Marks after values point to notes of the source that are not given here.

Columns and labels:
[1] = test system: Mammary gland MDA-MB-231 cells; experiment: CyQUANT-NF proliferation assay, 48-h drug treatment; assay type: cell-based
Experimental: Since the BRG prodrugs are composed of WR1065 as one of the major constituents, assays were conducted to determine if factors reported to modulate the activity of amino acid and polyamine plasma membrane transport systems impacted the efficacy of 4SP65 or 1LP65 in selected cancer cell lines. HL60 cells were exposed to 4SP65 with up to 0.5 mM NaCl, MBA-MD-231 cells were tested in the presence and absence of medium supplemented with estradiol plus insulin (in the BulletKit™ for growth supplements for NHMECs), HCC38 cells were exposed to 4SP65 with and without 10 µM insulin added to the growth medium, and multiple cells lines were pretreated for 24 h with 1 mM DFMO prior to starting exposures to 4SP65.
(§1) The percentage of growth inhibition was calculated as follows: […]

[2] = test system: Strain-2 and Strain-3 NHMECs; assay type: cell-based; details: 48 h; for IC50: read-out: IC50
Text: (§2) Normal human mammary epithelial cell (NHMEC) strains used to assess potential cytotoxicity of 4SP65 and 1LP65 were established from reduction mammoplasty tissue from a healthy donor (M99005 or ‘Strain-1’) ([53]) or purchased from ATCC (Manassas, VA, USA; batch#70043304 or ‘Strain-2’) or Cell Applications (San Diego, CA, USA; lot#1669 or ‘Strain-3’). Human cancer cell lines including HCC38, MDA-MB-231, A549, National Cancer Institute (NCI)-H460, NCI-H1437, NCI-H1975, DU145, LNCaP, PC3, PANC1, SKOV3, and HL60, which were free of Mycoplasma, were purchased from ATCC. HMESO1, PPMMill, and TOV21G cells, obtained from Dr. Brian Cunniff, were verified to be Mycoplasma negative using the LookOut® Mycoplasma PCR Detection Kit (Sigma-Aldrich) and to match previously annotated DNA fingerprints by the Vermont Integrative Genomics Resource DNA Analysis Facility.
(§3) To assess the effects of 4SP65 or 1LP65 on the growth of normal epithelium, experiments were performed using NHMEC strains from differing donors ([53]). Strain-1 NHMECs were plated at 5,000 cells/well in 24-well plates and allowed to reach 50% confluence before treatment with 0-150 µM 4SP65 for 48 h. Cell viability was determined using a hemocytometer and trypan blue exclusion assay. Two other NHMEC strains, exposed to 0-150 µM 4SP65 or 0-500 µM 1LP65 for 48 h, were handled in the same fashion except that viability of cells in 96-well plates was determined using CyQUANT dye. Due to the short life span of these NHMECs, standard curves were not generated and fluorescence readings were used as a surrogate marker of cell number ([54]).

[3] = test system: Malignant pleural mesothelioma HMESO1 cells; details: for Fold increase in efficacy: drug alone ÷ drug in 4SP65-DDP combination
Experimental: as §1

NCI-H1437 NSCLC cells = test system: NCI-H1437 NSCLC cells
Experimental: as §1

[4] = test system: Mammary gland HCC38 cells; experiment: CyQUANT-NF proliferation assay, 48-h drug treatment; assay type: cell-based; details: for Relative cell inhibition: 99% confluent cells, 48 h
Strain-1 NHMECs (M99005) = experiment: NHMEC growth, trypan blue exclusion, 48-h treatment; assay type: cell-based, human
Text: as §2, §3

[5] = Prodrug stability in culture medium with alamarBlue, cell free, 72 h; assay type: in vitro ADME; details: standard growth medium, 37°C
Experimental: To determine drug stability in tissue culture medium for short-term treatments, 4SP65 was added to medium containing alamarBlue reagent in 96-well plates and incubated in the absence of cells at 37°C for 72 h. After this incubation period, wells with medium containing alamarBlue alone or both alamarBlue and 4SP65 were assessed for fluorescence readings using a Tecan Infinite 200 PRO plate reader (San Jose, CA, USA).

Ovary TOV21G cells = experiment: cells; details: for Fold increase in efficacy: drug alone ÷ drug in 4SP65-DDP combination
Experimental: as §1

Pancreas PANC-1 cells = experiment: cells
Experimental: as §1

[6] = test system: Malignant pleural mesothelioma PPMMill cells; experiment: cells; details: for Fold increase in efficacy: drug alone ÷ drug in 4SP65-DDP combination
Experimental: as §1

[7] = 48-h treatment, amifostine ND = not definable up to 500 µM
[8] = drug alone, 48 h, 4SP65/cisplatin study
[9] = drug alone, 48 h, 4SP65/cisplatin study, ND = not definable, highest concentration in parentheses

## 4-star-PEG-S-S-WR1065 [4SP65]
[1]
  CC50: 9.2 ± 1.2 µM
[1]; [7]
  IC50: 4.7 ± 0.9 µM
  LC99: 11.0 ± 1.8 µM
  TGI: 6.6 ± 1.0 µM and 6.6 µM
[1]; IC50 in NHMECs ÷ IC50 in MDA-MB-231, average
  selectivity index: > 26
[1]; at GI50
  Dose reduction value 1LP65 ÷ 4SP65: 26 fold
[1]; at IC50
  Dose reduction value 1LP65 ÷ 4SP65: 15 fold
[1]; at LC50
  Dose reduction value 1LP65 ÷ 4SP65: 15 fold
[1]; at LC99
  Dose reduction value 1LP65 ÷ 4SP65: 14 fold
[1]; at TGI
  Dose reduction value 1LP65 ÷ 4SP65: 21 fold
[1]; insulin plus estradiol
  fold increase in drug efficacy at the TGI level with hormones: ~4 fold
[1]; with insulin plus estradiol, 48 h
  TGI: 1.2 µM
[1]; without hormones, 48 h (pilot experiment)
  TGI: 4.6 µM
[2]; Strain-2 NHMECs
  IC50: > 150 µM
[2]; Strain-2 and Strain-3 cells, 3 µM
  growth enhancement: 162% ± 7%
[2]; Strain-2 and Strain-3 cells, 9 µM
  growth relative to control cells: 78% ± 12%
[2]; Strain-2 and Strain-3 cells, 30 µM
  growth relative to control cells: 52% ± 8%
[2]; Strain-2 and Strain-3 cells, 90 µM
  growth relative to control cells: 21% ± 4%
[2]; Strain-2 and Strain-3 cells, 150 µM
  growth relative to control cells: 8.7% ± 2%
[2]; Strain-3 NHMECs
  IC50: 76 ± 14 µM
[3]; [7]
  GI50: 1.3 ± 0.4 µM
  IC50: 2.9 ± 1 µM
  LC99: 7.9 ± 2.6 µM
  TGI: 2.9 ± 0.8 µM
[3]; at GI50
  Fold increase in efficacy: 1.5 (NS) fold
[3]; at IC50
  Fold increase in efficacy: 1.1 (NS) fold
[3]; at LC50, GoE = gain of effect
  Fold increase in efficacy: 1.0 (NS) fold
[3]; at LC99, GoE = gain of effect
  Fold increase in efficacy: 1.1 (NS) fold
[3]; at TGI
  Fold increase in efficacy: 1.3 (NS) fold
[3]; [8]
  GI50: 2 ± 0.3 µM
  IC50: 4.7 ± 0.2 µM
  TGI: 4.3 ± 0.2 µM
[3]; [9]
  LC99: 12.4 ± 0.1 µM
NCI-H1437 NSCLC cells
  CC50: 19.6 ± 0.7 µM
NCI-H1437 NSCLC cells; [7]
  GI50: 10.6 ± 2 µM
  IC50: 12.5 ± 2.6 µM
  LC99: 21.1 ± 0.2 µM
  TGI: 16.3 ± 1.9 µM
NCI-H1437 NSCLC cells; at GI50
  Dose reduction value 1LP65 ÷ 4SP65: 6.5 fold
NCI-H1437 NSCLC cells; at IC50
  Dose reduction value 1LP65 ÷ 4SP65: 6.0 fold
NCI-H1437 NSCLC cells; at LC50
  Dose reduction value 1LP65 ÷ 4SP65: 8.0 fold
NCI-H1437 NSCLC cells; at LC99
  Dose reduction value 1LP65 ÷ 4SP65: 11 fold
NCI-H1437 NSCLC cells; at TGI
  Dose reduction value 1LP65 ÷ 4SP65: 6.3 fold
[4]
  CC50: 6.8 ± 0.9 µM
[4]; [7]
  GI50: 1.3 ± 0.4 µM
  IC50: 4.1 ± 0.2 µM
  LC99: 11.9 ± 1.6 µM
  TGI: 3.7 ± 0.3 µM
[4]; 10 µM 4SP65 alone
  Relative cell inhibition: 3.4 ± 10.9%
[4]; 10 µM 4SP65 with 10 µM insulin
  Relative cell inhibition: 42 ± 6.5%
[4]; IC50 in NHMECs ÷ IC50 in HCC38, average
  selectivity index: > 31
[4]; at GI50
  Dose reduction value 1LP65 ÷ 4SP65: 28 fold
  Dose reduction value AMF ÷ 4SP65: 60 fold
[4]; at IC50
  Dose reduction value 1LP65 ÷ 4SP65: 12 fold
  Dose reduction value AMF ÷ 4SP65: 67 fold
[4]; at LC50
  Dose reduction value 1LP65 ÷ 4SP65: 8.8 fold
[4]; at LC99
  Dose reduction value 1LP65 ÷ 4SP65: 7.1 fold
[4]; at TGI
  Dose reduction value 1LP65 ÷ 4SP65: 13 fold
  Dose reduction value AMF ÷ 4SP65: 69 fold
[4]; growth-arrested cells
  fold increase in drug efficacy with insulin: 12.4 fold
Strain-1 NHMECs (M99005); Strain-1 NHMECs
  IC50: > 150 µM
Strain-1 NHMECs (M99005); Strain-1 cells, 5 µM
  growth enhancement compared to sham-exposed control cells: 336%
Strain-1 NHMECs (M99005); Strain-1 cells, 15 µM
  growth enhancement compared to sham-exposed control cells: 286%
Strain-1 NHMECs (M99005); Strain-1 cells, 50 µM
  growth as % of the control cell growth: 68%
Strain-1 NHMECs (M99005); Strain-1 cells, 150 µM
  growth pattern: growth enhancement
[5]
  change in fluorescence of alamarBlue reagent versus control wells: no significant change
Ovary TOV21G cells
  CC50: 2.7 µM
Ovary TOV21G cells; 4SP65-cisplatin combined
  gains in total growth inhibition and cytolytic effects, range: 2.4- to 3.2 fold
Ovary TOV21G cells; [7]
  GI50: 0.9 ± 0.4 µM
  IC50: 1.2 ± 0.3 µM
  TGI: 2.0 ± 0.4 µM
Ovary TOV21G cells; amount of each drug in combination, ratio 14% 4SP65:86% DDP, 48 h
  LC99, drug in combination (CMB): 0.95 µM
Ovary TOV21G cells; at GI50
  Dose reduction value 1LP65 ÷ 4SP65: 24 fold
  Dose reduction value AMF ÷ 4SP65: 52 fold
  Fold increase in efficacy: 2.3 (NS) fold
Ovary TOV21G cells; at IC50
  Dose reduction value 1LP65 ÷ 4SP65: 22 fold
  Dose reduction value AMF ÷ 4SP65: 41 fold
  Fold increase in efficacy: 1.9 (NS) fold
Ovary TOV21G cells; at LC50
  Dose reduction value 1LP65 ÷ 4SP65: 19 fold
  Fold increase in efficacy: 3.0*** fold
Ovary TOV21G cells; at LC99
  Dose reduction value 1LP65 ÷ 4SP65: 31 fold
  Fold increase in efficacy: 3.2*** fold
Ovary TOV21G cells; at TGI
  Dose reduction value 1LP65 ÷ 4SP65: 27 fold
  Fold increase in efficacy: 2.4* fold
Ovary TOV21G cells; [8]
  GI50: 0.93 ± 0.37 µM
  IC50: 1.2 ± 0.3 µM
  LC99: 3.0 µM and 3.0 ± 0.2 µM
  TGI: 2.0 ± 0.4 µM
Pancreas PANC-1 cells
  CC50: 5 ± 0.3 µM
Pancreas PANC-1 cells; [7]
  GI50: 2.8 ± 0.6 µM
  IC50: 3.7 ± 0.6 µM
  LC99: 7.0 ± 0.5 µM
  TGI: 4.0 ± 0.4 µM
Pancreas PANC-1 cells; at GI50
  Dose reduction value AMF ÷ 4SP65: 39 fold
[6]; [7]
  GI50: 6 ± 1.7 µM
  IC50: 7.4 ± 2 µM
  LC99: 14.8 ± 2.9 µM
  TGI: 10.6 ± 3.0 µM
[6]; at GI50
  Fold increase in efficacy: 1.3 (NS) fold
[6]; at IC50
  Fold increase in efficacy: 1.3 (NS) fold
[6]; at LC50, GoE = gain of effect
  Fold increase in efficacy: 1.3 (NS) fold
[6]; at LC99, GoE = gain of effect
  Fold increase in efficacy: 1.3 (NS) fold
[6]; at TGI, GoE = gain of effect
  Fold increase in efficacy: 1.3 (NS) fold
[6]; [8]
  GI50: 8.4 ± 1.5 µM
  IC50: 10 ± 1.9 µM
[6]; [9]
  LC99: 17.6 ± 3.5 µM
  TGI: 14.1 ± 3.3 µM
